Read-outs that look alike come from different tables or passages of the source.
Experiments:
[1] = HPLC quantitation of compound and metabolite concentration in rabbit serum and liver; assay type: in vivo, female New Zealand White rabbits; settings: diet 0.4%, 7 days; for concentration at 168 h: po
Procedure, shortened: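 Female New Zealand White rabbits fed 0.2% cholesterol chow with 0.4% compound (some at 0.26% or 0.6%) for 7 days (14 days at 0.6%), fasted overnight before sampling. Serum and liver extracts run by reverse-phase C18 HPLC, absorbance 240/254/420 nm, for parent, bisphenol and diphenoquinone; recovery-corrected, detection limit ~0.5 μg/mL.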

[2] = Clinical chemistries in serum of rats; assay type: in vivo, male Sprague-Dawley rats; settings: for response vs control in vivo at 0.3 % / response vs control in vivo at 0.1 %: po, 96 h
Procedure, shortened: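 Male Sprague-Dawley rats (50-100 g, N=5/group) fed compound as 0.3% or 0.1% dietary admixture for 4 days vs untreated-chow controls. Non-fasted rats bled by cardiac puncture on day 5; fresh serum analysed on autoanalyzer for ALP, ALT, AST (units/L) and cholesterol, triglycerides, glucose (mg/dL).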

[3] = test system: oxidation of serum lipids; assay: TBARS assay, rat serum; assay type: in vivo, male Sprague-Dawley rats; settings: po, 96 h, read-out: TBARS, percent of control
Procedure, shortened: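 Male Sprague-Dawley rats (50–100 g) were fed compound as a 0.3% or 0.1% dietary admixture for 4 days, and serum was taken from non-fasted rats on day 5. Serum was oxidised with 5 mmol CuSO4 solution at 37 °C for 3 h, then reacted with TBA at 90 °C for 30 min. A540 was converted to nmol MDA by standard curve and compared against untreated-rat serum.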

[4] = rabbit liver, read-out: Liver Parent = parent compound concentration
[5] = rabbit serum, read-out: Serum Parent = parent compound concentration
[6] = rat serum, diet 0.3%, 4 days, read-out: CHOL (total cholesterol), percent of control
[7] = rat serum, diet 0.3%, 4 days, read-out: TRIG (triglycerides), percent of control
[8] = Rattus norvegicus, read-out: CHOL (total cholesterol), percent of control
[9] = Rattus norvegicus, read-out: TRIG (triglycerides), percent of control

| SMILES | concentration at 168 h [1, 4] [ng/g] | concentration at 168 h [1, 5] [ng/mL] | response vs control in vivo at 0.3 % [2, 6] [%] | response vs control in vivo at 0.3 % [2, 7] [%] | ALP (alkaline phosphatase), percent of control ([2]; rat serum, diet 0.3%, 4 days) [%] | ALT (alanine aminotransferase), percent of control ([2]; rat serum, diet 0.3%, 4 days) [%] | AST (aspartate aminotransferase), percent of control ([2]; rat serum, diet 0.3%, 4 days) [%] | GLUC (glucose), percent of control ([2]; rat serum, diet 0.3%, 4 days) [%] | response vs control in vivo at 0.3 % ([3]; rat serum, diet 0.3%, 4 days) [%] | ALP (alkaline phosphatase), percent of control ([2]; rat serum, diet 0.1%, 4 days) [%] | ALT (alanine aminotransferase), percent of control ([2]; rat serum, diet 0.1%, 4 days) [%] | AST (aspartate aminotransferase), percent of control ([2]; rat serum, diet 0.1%, 4 days) [%] | GLUC (glucose), percent of control ([2]; rat serum, diet 0.1%, 4 days) [%] | also measured |
| --- | --- | --- | --- | --- | --- | --- | --- | --- | --- | --- | --- | --- | --- | --- |
| CC(C)(C)c1cc(OC[Si](C)(c2ccccc2)c2ccccc2)cc(C(C)(C)C)c1O [MDL 104,599, 2,6-Di-t-butyl-4-[(diphenylmethylsilyl)methloxy]phenol] | 47200 | 14800 | 94 | 100 | 110 | 91 | 76 | 111 | 34 |  |  |  |  |  |
| CC(C)(C)c1cc(OC[Si](C)(C)c2ccccc2)c(C(C)(C)C)cc1O [MDL 104,962, 2,5-Di-t-butyl-4-[(dimethylphenylsilyl)methyloxy]phenol] | 3600 | 3800 | 99 | 74 | 130 | 112 | 109 | 91 | 25 |  |  |  |  |  |
| CC(=O)Oc1ccc(OC[Si](C)(C)c2ccccc2)cc1C(C)(C)C [MDL 105,443, 2-t-Butyl-4-[(dimethylphenylsilyl)methyloxy]phenol acetic acid ester] |  |  | 131 | 126 | 90 | 156 | 171 | 98 | 14 | 101 | 116 | 94 | 106 | Liver Parent = parent compound concentration ([1]; rabbit liver): 0 µg/g; Serum Parent = parent compound concentration ([1]; rabbit serum): 0 µg/mL; response vs control in vivo at 0.1 % ([2]; rat serum, diet 0.1%, 4 days, read-out: CHOL (total cholesterol), percent of control): 111%; response vs control in vivo at 0.1 % ([2]; rat serum, diet 0.1%, 4 days, read-out: TRIG (triglycerides), percent of control): 111%; response vs control in vivo at 0.1 % ([3]; rat serum, diet 0.1%, 4 days): 78% |
| CC(C)(C)c1cc(OC[Si](C)(C)c2ccc(C(F)(F)F)cc2)cc(C(C)(C)C)c1O [MDL 105,975, 2,6-Di-t-butyl-4-[(dimethyl-4-trifluoromethylphenylsilyl)methyloxy]phenol] | 54600 | 13800 |  |  | 105 | 106 | 122 | 106 |  | 112 | 96 | 89 | 110 | response vs control in vivo at 0.1 % [2, 8]: 98%; response vs control in vivo at 0.3 % [2, 8]: 122%; response vs control in vivo at 0.1 % [2, 9]: 108%; response vs control in vivo at 0.3 % [2, 9]: 107%; response vs control in vivo at 0.1 % ([3]; Rattus norvegicus): 67%; response vs control in vivo at 0.3 % ([3]; Rattus norvegicus): 24% |
| COc1ccc([Si](C)(C)COc2ccc(O)c(C(C)(C)C)c2)cc1 [MDL 106,834, 2-t-Butyl-4-[(dimethyl-p-methoxylphenylsilyl)methyloxy]phenol] | 9100 | 2900 | 150 | 83 | 69 | 141 | 122 | 95 | 31 |  |  |  |  |  |
